Results as given in patent US11672797B2, “Methods of treating keloids” (Hampton University, priority 2019, dated 2023).

Columns and labels:
Type in all cases: cell-based, human
[1] = tested on: Keloid fibroblast (KF) cells (CRL1762); experiment: Example 1: Hoechst / propidium iodide staining of keloid fibroblasts after 16 h treatment; conditions: for number of KF cells: 40 μM KC7F2, 25 uM IDF-11774, 25 uM PX-478, 10 mM 2-DG, compared to control untreated cells, FIGS. 4A-B
[2] = tested on: Keloid fibroblast (KF) cells (CRL1762); experiment: Example 2: phalloidin / DAPI staining of keloid fibroblasts, 10,000 cells per well; conditions: 16 hours
Description: (§1) Keloid fibroblast (KF) cells (CRL1762) and normal skin fibroblasts (NF, CRL2439) were both purchased from the American Type Culture Collection (ATCC, Manassas, Va.). This assay compared the effects of KC7F2 versus the glycolytic inhibitor 2-DG on the cellular consequences of HIF-1 functional blockade.
(§2) For each human skin fibroblast, 10,000 cells were plated per well. Each well was treated and incubated for 16 hours with the following: Control, no chemical treatment; 40 μM KC7F2; 10 mM 2-deoxyglucose (2-DG), a glycolysis inhibitor; and both 40 μM KC7F2 and 10 mM 2-DG. Cells were stained with phalloidin for filamentous actin and cells were labelled DAPI (4′,6-diamidino-2-phenylindolepropridium iodide) to indicate dying cells. Images were taken at a magnification of 4 times (4×) and 10 times (10×).

[3] = tested on: Keloid fibroblast (KF) cells (CRL1762); experiment: Example 3: phalloidin / DAPI staining of keloid fibroblasts, 20,000 cells per well; conditions: 16 hours
Description: as §1
as §2, with “20,000 cells,” for “10,000 cells”

O=CC[C@@H](O)[C@H](O)[C@H](O)CO [2-DG, 2-deoxyglucose]
proliferation ([1]; 10 mM 2-DG alone): insufficient to impede proliferation to an appreciable amount
proliferation ([2]; 10 mM 2-DG alone): insufficient to impede proliferation to an appreciable amount
proliferation ([3]; 10 mM 2-DG alone): insufficient to impede proliferation to an appreciable amount

CN1CCN(C(=O)COc2ccc(C34CC5CC(CC(C5)C3)C4)cc2)CC1 [IDF-11774, 2-(4-((3r,5r,7r)-adamantan-1-yl)phenoxy)-1-(4-methylpiperazin-1-yl)ethan-1-one]
number of KF cells [1]: worked less well, but showed the same trend

O=S(=O)(NCCSSCCNS(=O)(=O)c1cc(Cl)ccc1Cl)c1cc(Cl)ccc1Cl [KC7F2]
number of KF cells [1]: reduced the number of KF cells consistently and the best
number of KF cells ([2]; 40 μM KC7F2, FIGS. 5A, 6A): reduced the number of KF cells consistently and the best
number of KF cells ([3]; 40 μM KC7F2, FIGS. 7A, 8A): reduced the number of KF cells consistently and the best
